Assay results: patent US7119094B1, “Substituted polycyclic aryl and heteroarpyl pyrazinones useful for selective inhibition of the coagulation cascade” (Warner-Lambert Company, priority 2000, dated 2006)
Read-outs that look alike come from different tables or passages of the source.

Assays:
[1] = biological target: T1, recombinant soluble tissue factor and recombinant human factor VIIa (TF-VIIa) (Homo sapiens, UniProt P08709); experiment: TF-VIIa Assay; format: biochemical
T1 construct: conversion of coagulation factor VII to VIIa by Xa; purchased American Diagnostica, Greenwich Conn; host or cells: factor VIIa purchased; soluble TF made in house in E. coli
T1 sequence (P08709 213-466 limits assumed): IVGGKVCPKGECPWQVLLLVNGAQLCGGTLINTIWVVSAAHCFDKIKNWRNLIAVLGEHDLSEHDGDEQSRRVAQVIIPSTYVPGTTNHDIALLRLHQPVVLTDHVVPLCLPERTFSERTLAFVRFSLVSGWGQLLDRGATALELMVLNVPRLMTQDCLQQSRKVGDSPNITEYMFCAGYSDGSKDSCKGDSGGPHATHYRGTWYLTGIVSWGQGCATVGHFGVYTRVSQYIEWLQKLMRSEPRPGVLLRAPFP
T1 sequence (P08709 61-212 limits assumed): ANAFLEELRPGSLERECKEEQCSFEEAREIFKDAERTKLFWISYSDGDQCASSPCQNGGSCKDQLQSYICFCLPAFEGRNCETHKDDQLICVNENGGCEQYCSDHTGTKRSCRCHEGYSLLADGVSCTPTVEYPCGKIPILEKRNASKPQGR
T1 sequence (P13726 33-251 partner limits assumed): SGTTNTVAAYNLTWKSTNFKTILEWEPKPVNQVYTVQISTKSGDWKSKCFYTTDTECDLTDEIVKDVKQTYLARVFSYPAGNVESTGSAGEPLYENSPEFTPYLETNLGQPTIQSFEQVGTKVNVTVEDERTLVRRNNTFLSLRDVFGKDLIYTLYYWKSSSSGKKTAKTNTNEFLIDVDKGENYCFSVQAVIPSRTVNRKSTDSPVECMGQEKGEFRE

[2] = biological target: T2, Trypsin (type 1× from porcine pancreas) (Sus scrofa, UniProt P00761); experiment: Trypsin Assay; format: biochemical
T2 construct: Trypsin (5 ug/ml; type 1× from porcine pancreas); purchased Sigma, St. Louis Mo; host or cells: porcine pancreas
T2 sequence (P00761 9-231): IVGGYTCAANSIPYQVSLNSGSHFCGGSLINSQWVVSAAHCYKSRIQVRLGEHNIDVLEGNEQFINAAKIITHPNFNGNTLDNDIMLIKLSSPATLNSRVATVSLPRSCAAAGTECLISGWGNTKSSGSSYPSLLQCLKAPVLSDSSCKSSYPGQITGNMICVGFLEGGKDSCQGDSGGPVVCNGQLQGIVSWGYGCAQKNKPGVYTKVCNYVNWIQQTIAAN

Row | Compound | % Inhibition TF-VIIa (100 νM) [1] | % Inhibition Trpysin II (100 νM) [2] | % Inhibition TF-VIIa (100 νM) ([1]; inhibitor at 100 νM) | % Inhibition Trpysin II (100 νM) ([2]; inhibitor at 100 νM)
1 | O=C(Cn1c(-c2ccc(-c3ccccc3)cc2)c(Cl)nc(NCCc2ccc(Cl)cc2)c1=O)NCCc1ccncc1 [Example E-0052] | 0% | 0% | – | –
2 | O=C(Cn1c(-c2cccc(Cl)c2)c(Cl)nc(NCCc2ccc(Cl)cc2)c1=O)NCCc1cccnc1 [Example E-0083] | – | – | 2% | 6%
3 | O=C(Cn1c(-c2ccc(Cl)cc2)c(Cl)nc(NCCc2ccncc2)c1=O)NCCc1ccncc1 [Example E-0022] | – | – | 0% | 2%
4 | O=C(Cn1c(CCc2ccccc2)c(Cl)nc(NCCc2cccnc2)c1=O)NCCc1ccncc1 [Example E-0069] | – | – | 0% | 0%
5 | COc1ccc(-c2c(Cl)nc(NCCc3ccc(Cl)cc3)c(=O)n2CC(=O)NCCc2ccncc2)cc1 [Example E-0036] | – | – | 0% | 0%
6 | O=C(Cn1c(-c2ccc(Cl)cc2)c(Cl)nc(NCCc2cccnc2)c1=O)NCCc1ccncc1 [Example E-0029] | – | – | 0% | 2%
7 | O=C(Cn1c(-c2ccc(Cl)cc2)c(Cl)nc(NCCN2CCOCC2)c1=O)NCCc1ccncc1 [Example E-0023] | – | – | 0% | 1%
8 | O=C(Cn1c(-c2ccc(Cl)cc2)c(Cl)nc(NCCc2ccccc2)c1=O)NCCc1ccncc1 [Example E-0018] | – | – | 1% | 4%
9 | O=C(Cn1c(-c2cccc(Cl)c2)c(Cl)nc(NCCc2cccc(Cl)c2)c1=O)NCCc1ccncc1 [Example E-0079] | – | – | 0% | 11%
10 | O=C(Cn1c(-c2ccc(Cl)cc2)c(Cl)nc(NCCc2cccc(Cl)c2)c1=O)NCCc1ccncc1 [Example E-0019] | – | – | 0% | 2%
11 | O=C(Cn1c(-c2ccc3c(c2)OCO3)c(Cl)nc(NCCc2cccnc2)c1=O)NCCc1ccncc1 [Example E-0045] | – | – | 0% | 4%
12 | O=C(Cn1c(Cc2ccccc2)c(Cl)nc(NCCc2ccncc2)c1=O)NCCc1ccncc1 [Example E-0062] | – | – | 0% | 0%
13 | Cc1c(Cl)nc(NCc2ccccc2)c(=O)n1CC(=O)NCCc1ccncc1 [Example E-0001] | – | – | 0% | 0%
14 | O=C(Cn1c(-c2ccccc2)c(Cl)nc(NCc2ccncc2)c1=O)NCCc1ccncc1 [Example E-0016] | – | – | 0% | 4%
15 | O=C(Cn1c(-c2ccccc2)c(Cl)nc(NCCc2ccc(Cl)cc2)c1=O)NCCc1ccncc1 [Example E-0012] | – | – | 0% | 0%
16 | O=C(Cn1c(-c2cccc(Cl)c2)c(Cl)nc(NCc2ccccc2)c1=O)NCCc1ccncc1 [Example E-0073] | – | – | 0% | 6%
17 | O=C(Cn1c(-c2ccc(Cl)cc2)c(Cl)nc(NCc2ccncc2)c1=O)NCCc1ccncc1 [Example E-0032] | – | – | 0% | 3%
18 | O=C(Cn1c(-c2ccc(Cl)cc2)c(Cl)nc(NCc2ccccc2)c1=O)NCCc1ccncc1 [Example E-0017] | – | – | 0% | 1%
19 | O=C(Cn1c(-c2cccc(Cl)c2)c(Cl)nc(NCCc2cccc(Cl)c2)c1=O)NCCc1cccnc1 [Example E-0092] | – | – | 1% | 9%
20 | O=C(Cn1c(-c2cccc(Cl)c2)c(Cl)nc(NCCc2ccccc2)c1=O)NCCc1cccnc1 [Example E-0089] | – | – | 3% | 8%
21 | COc1ccc(-c2c(Cl)nc(NCc3ccccc3)c(=O)n2CC(=O)NCCc2cccnc2)cc1 [Example E-0098] | – | – | 0% | 8%
22 | COc1ccc(-c2c(Cl)nc(NCCc3ccc(Cl)cc3)c(=O)n2CC(=O)NCCc2cccnc2)cc1 [Example E-0107] | – | – | 4% | 12%
23 | O=C(Cn1c(-c2ccccc2)c(Cl)nc(NCCc2ccccc2)c1=O)NCCc1ccncc1 [Example E-0010] | – | – | 0% | 0%

Row | Compound | % Inhibition TF-VIIa (100 νM) [1] | % Inhibition Trpysin II (100 νM) [2] | % Inhibition TF-VIIa (100 νM) ([1]; inhibitor at 100 νM) | % Inhibition Trpysin II (100 νM) ([2]; inhibitor at 100 νM)
24 | O=C(Cn1c(-c2ccc(Cl)cc2)c(Cl)nc(NCCc2ccc(Cl)cc2)c1=O)NCCc1ccncc1 [Example E-0028] | – | – | 0% | 3%
25 | O=C(Cn1c(-c2ccc(Cl)cc2)c(Cl)nc(NCc2ccncc2)c1=O)NCCc1ccncc1 [Example E-0024] | – | – | 0% | 1%
26 | O=C(Cn1c(Cc2ccccc2)c(Cl)nc(NCc2ccncc2)c1=O)NCCc1ccncc1 [Example E-0064] | – | – | 0% | 0%
27 | O=C(Cn1c(-c2ccc(-c3ccccc3)cc2)c(Cl)nc(NCc2ccccc2)c1=O)NCCc1ccncc1 [Example E-0049] | 2% | 0% | – | –
28 | O=C(Cn1c(Cc2ccccc2)c(Cl)nc(NCc2ccccc2)c1=O)NCCc1ccncc1 [Example E-0057] | – | – | 0% | 0%
29 | COc1ccc(-c2c(Cl)nc(NCCc3cccc(Cl)c3)c(=O)n2CC(=O)NCCc2ccncc2)cc1 [Example E-0103] | – | – | 2% | 11%
30 | Cc1c(Cl)nc(NCCN2CCOCC2)c(=O)n1CC(=O)NCCc1ccncc1 [Example E-0007] | – | – | 0% | 0%
31 | O=C(Cn1c(Cc2ccccc2)c(Cl)nc(NCCN2CCOCC2)c1=O)NCCc1ccncc1 [Example E-0063] | – | – | 0% | 0%
32 | Cc1c(Cl)nc(NCCc2cccnc2)c(=O)n1CC(=O)NCCc1ccncc1 [Example E-0005] | – | – | 0% | 0%
33 | O=C(Cn1c(-c2cccc(Cl)c2)c(Cl)nc(NCCc2cccc(Cl)c2)c1=O)NCCc1cccnc1 [Example E-0080] | – | – | 1% | 5%
34 | COc1ccc(-c2c(Cl)nc(NCc3ccccc3)c(=O)n2CC(=O)NCCc2ccncc2)cc1 [Example E-0097] | – | – | 0% | 11%
35 | Cc1c(Cl)nc(NCc2ccncc2)c(=O)n1CC(=O)NCCc1ccncc1 [Example E-0008] | – | – | 0% | 0%
36 | O=C(Cn1c(CCc2ccccc2)c(Cl)nc(NCCc2ccccc2)c1=O)NCCc1ccncc1 [Example E-0066] | – | – | 0% | 0%
37 | O=C(Cn1c(-c2ccccc2)c(Cl)nc(NCCc2cccc(Cl)c2)c1=O)NCCc1ccncc1 [Example E-0011] | – | – | 0% | 0%
38 | O=C(Cn1c(Cc2ccccc2)c(Cl)nc(NCCc2ccccc2)c1=O)NCCc1ccncc1 [Example E-0058] | – | – | 0% | 0%
39 | O=C(Cn1c(-c2cccc(Cl)c2)c(Cl)nc(NCc2ccccc2)c1=O)NCCc1ccncc1 [Example E-0085] | – | – | 0% | 9%
40 | O=C(Cn1c(-c2ccc(Cl)cc2)c(Cl)nc(NCCc2ccc(Cl)cc2)c1=O)NCCc1ccncc1 [Example E-0020] | – | – | 0% | 4%
41 | O=C(Cn1c(-c2ccc(-c3ccccc3)cc2)c(Cl)nc(NCCc2ccccc2)c1=O)NCCc1ccncc1 [Example E-0112] | 11% | 13% | – | –
42 | O=C(Cn1c(-c2cccc(Cl)c2)c(Cl)nc(NCCc2ccccc2)c1=O)NCCc1cccnc1 [Example E-0077] | – | – | 0% | 7%
43 | O=C(Cn1c(Cc2ccccc2)c(Cl)nc(NCCc2cccc(Cl)c2)c1=O)NCCc1ccncc1 [Example E-0059] | – | – | 0% | 0%
44 | COc1ccc(-c2c(Cl)nc(NCCN3CCOCC3)c(=O)n2CC(=O)NCCc2ccncc2)cc1 [Example E-0039] | – | – | 0% | 2%
45 | O=C(Cn1c(-c2ccc(Cl)cc2)c(Cl)nc(NCc2ccccc2)c1=O)NCCc1ccncc1 [Example E-0025] | – | – | 0% | 3%
46 | O=C(Cn1c(-c2ccc3c(c2)OCO3)c(Cl)nc(NCCc2cccc(Cl)c2)c1=O)NCCc1ccncc1 [Example E-0043] | – | – | 0% | 3%
